Patent publication US10308631B2, “Selective anti-cancer compounds” (NATIONAL UNIVERSITY OF SINGAPORE, priority 2015, dated 2019)

Columns and labels:
[1] = test system: p53 and p21 in oncogene-transformed BJ cells; assay: Immunoblot analysis of p53 and p21; format: cell-based, human; details: 2.5 and 5 μM, 24 h or 48 h
Method: (§1) A: is output from a FACS analysis of isogenic-non-transformed, without (panels a-c) (WT) or with (panels d-f) shRNA-mediated knockdown of p53 (p53KD), and oncogene-transformed BJ cells (panels g-i), each treated with 0, 5 or 2.5 μM Compound 1 (a131) for 24 h. Cells were doubly stained with PI (horizontal axis) and BrdU (vertical axis). The BrdU-positive population in panels a-c are indicated as arrows. B: is a diagrammatic representation of an immunoblot analysis showing isogenic non-transformed (normal) and oncogene-transformed BJ cells (transformed) treated with Compound 1 (a131) at 0, 2.5 or 5 μM for 24 h or 48 h. Cells were harvested and total lysates were analysed by detecting p53 and p21. Antibodies raised against β-actin were used as an internal loading control. C and D are histograms showing the percentage of bromodeoxyuracil (BrdU)-positive non-transformed (normal) BJ cells. C: Cells were treated with Group 1 Compound 1 (a131) at 2.5 and 5 μM, Compound 23 (b36) at 2.5 and 5 μM, and Compound 21 (b35) at 5 μM, and Group 2 Compound 25 (a166) at 2.5 and 5 μM, for 24 h. Cells were doubly stained with propidium iodide (PI) and BrdU, and subjected to FACS analysis. The BrdU-positive population are plotted as bars. […]

[2] = test system: p53 and p21 in non-transformed BJ cells; assay: Immunoblot analysis of p53 and p21; format: cell-based, human; details: 2.5 and 5 μM, 24 h or 48 h
Method: as §1

[3] = test system: U2OS; assay: MTT growth inhibition (GI50); format: cell-based; details: Homo sapiens, cancer (others), 72 h
Method: (§2) Having shown that Compound 1 and its derivatives are effective against HeLa cervical cancer cells and human fibroblast BJ cell lines, Compound 1 was then tested against a panel of thirty different human cancer cells lines derived from gastric, colon, liver, breast, lung and cervical tumours and five different human normal cell lines, which were normal fibroblast cell lines (BJ normal, IMR90, WI38) and retinal pigmented epithelium cell lines (ARPE-19, hTert-immortalized RPE-1).
(§3) The cell lines detailed in Table 2, below, were cultured in the media shown and treated with Compound 1 at a range of different concentrations (from 0.1 μM to 10 μM) for 72 h in triplicate and a mean concentration value for Compound 1 to achieve 50% growth inhibition (GI50) in each cell line was determined by use of the MTT assay.
(§4) The MTT assay was performed by adding thiazolyl blue tetrazolium bromide (MTT reagent, Invitrogen) at a concentration of 0.5 mg/mL to each cell culture and the resulting mixture incubated for 4 h at 37° C. The medium was then removed, and the blue dye remaining in each well was dissolved in DMSO by mixing with a microplate mixer. The absorbance of each well at 540 nm and 660 nm was measured using a microplate reader (Benchmark plus, BIO-RAD). The optical density (OD) values were calculated by subtracting the absorbance at 660 nm from the absorbance at 540 nm. Mean OD values from control cells containing only DMSO treated wells were set as 100%. The resulting GI50 values (in μM) are set out in Table 2 below.

[4] = test system: SNU-16; assay: MTT growth inhibition (GI50); format: cell-based; details: Homo sapiens, SNU-16, gastric cancer, 72 h
Method: as §2, §3, §4

[5] = test system: DLD1; assay: MTT growth inhibition (GI50); format: cell-based; details: Homo sapiens, DLD-1, DLD1, colon cancer, 72 h
Method: as §2, §3, §4

[6] = test system: SNU1; assay: MTT growth inhibition (GI50); format: cell-based; details: Homo sapiens, SNU1, gastric cancer, 72 h
Method: as §2, §3, §4

[7] = test system: IMR90; assay: MTT growth inhibition (GI50); format: cell-based; details: Homo sapiens, IMR-90, IMR90, normal cell line, 72 h
Method: as §2, §3, §4

[8] = test system: ARPE-19; assay: MTT growth inhibition (GI50); format: cell-based; details: Homo sapiens, ARPE-19, normal cell line, 72 h
Method: as §2, §3, §4

[9] = test system: Hep3; assay: MTT growth inhibition (GI50); format: cell-based; details: Homo sapiens, Hep3, liver cancer, 72 h
Method: as §2, §3, §4

[10] = test system: A549; assay: MTT growth inhibition (GI50); format: cell-based; details: Homo sapiens, A549, cancer (others), 72 h
Method: as §2, §3, §4

[11] = test system: NCC59; assay: MTT growth inhibition (GI50); format: cell-based; details: Homo sapiens, NCC59, gastric cancer, 72 h
Method: as §2, §3, §4

[12] = test system: Huh7; assay: MTT growth inhibition (GI50); format: cell-based; details: Homo sapiens, Huh-7, Huh7, liver cancer, 72 h
Method: as §2, §3, §4

[13] = test system: NUGC4; assay: MTT growth inhibition (GI50); format: cell-based; details: Homo sapiens, NUGC-4, NUGC4, gastric cancer, 72 h
Method: as §2, §3, §4

[14] = test system: HeLa cells; assay: Soft agar colony formation assay (anchorage-independent growth); format: cell-based, human; details: sub-micromolar concentrations, seven days
Method: FIG. 8 is a histogram showing that Compound 1 (a131) potently suppresses anchorage-independent growth of cancer cells. HeLa cells were suspended in 2 mL of soft agar at the final concentration of 0.4%, and were then placed on the top of 2 mL layer of 1% agar in 6-well plates, in triplicate. Subsequently, Compound 1 (a131) was added to the plates at concentrations of 0, 0.15, 0.3, 0.6, 1.25. 2.5 and 5 μM. Seven (7) days after the addition of Compound 1 (a131) to soft agar cultures, the number of colonies per plate were counted in an unbiased manner using automated MATLAB software. The average number of colonies from triplicates was plotted with standard deviations.
Soft agar colony formation assays are known to better mimic the features of in vivo tumours growing in three dimensions than cancer cell lines growing in an in vitro tissue culture. Therefore, the anti-proliferative effects of Compound 1 on cancer cells growing anchorage-independently in soft agar were studied too.
HeLa cells as cultured in Biology Example 1 (1×10^4 cells/well) were suspended in 2 mL of soft agar at a final concentration of 0.4%. […] Seven days after the addition of Compound 1, the number of colonies per plate was counted in an unbiased manner using MATLAB software.

## N#C/C(=C\c1cccc2cnccc12)c1c[nH]c2ccccc12 [Compound 1, (Z)-2-(1H-indol-3-yl)-3-(isoquinolin-5-yl)acrylonitrile]
[1]
  protein expression levels of p53 and p21: did not alter the protein expression levels of p53 and p21
[2]
  protein levels of p53 and p21: increased protein levels of p53
[3]
  GI50: 1500 nM
[4]
  GI50: 1000 nM
[5]
  GI50: 1200 nM
[6]
  GI50: 900 nM
[7]
  GI50: 5800 nM
[8]
  GI50: > 10000 nM
[9]
  GI50: 3700 nM
[10]
  GI50: 2000 nM
[11]
  GI50: 900 nM
[12]
  GI50: 1200 nM
[13]
  GI50: > 10000 nM
[14]
  reduction of HeLa cell colonies grown in soft agar: greater than 50%
